{
  "source": "patent US20090081197A1",
  "about": "(Palatin Technologies, Inc., priority 2007, published 2009)",
  "key": {"MC4-R [1]": {"target": "T1, MC4-R (Homo sapiens, UniProt P32245)", "T1 sequence (P32245 whole entry)": "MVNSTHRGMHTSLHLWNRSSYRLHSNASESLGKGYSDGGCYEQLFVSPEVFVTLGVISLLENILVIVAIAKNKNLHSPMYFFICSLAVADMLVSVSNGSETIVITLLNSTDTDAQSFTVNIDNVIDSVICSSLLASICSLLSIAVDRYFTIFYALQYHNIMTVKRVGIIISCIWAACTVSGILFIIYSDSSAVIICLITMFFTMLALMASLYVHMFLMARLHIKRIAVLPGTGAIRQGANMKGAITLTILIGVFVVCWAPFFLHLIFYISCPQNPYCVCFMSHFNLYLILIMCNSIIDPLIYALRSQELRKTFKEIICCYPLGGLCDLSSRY", "assay": "cAMP agonist stimulation, high receptor density system (10 ng/mL doxycycline)", "conditions": "for Efficacy/Intrinsic Activity: 10 ng/mL doxycycline, high receptor density hMC4-R system, NDP-α-MSH maximal cAMP = 1.0"}, "MC4-R [2]": {"target": "T1, MC4-R", "assay": "cAMP agonist stimulation, low receptor density system (0.1 ng/mL doxycycline)", "conditions": "0.1 ng/mL doxycycline, low receptor density hMC4-R system; NDP-α-MSH maximal cAMP = 1.0"}, "MC4-R [3]": {"target": "T1, MC4-R", "assay": "Assay for neutral antagonist, Schild analysis (pA2) against NDP-α-MSH", "type": "cell-based", "set-up": "expressed in transfected cells; host or cells: HEK-293", "conditions": "Schild analysis vs NDP-α-MSH; read-out: pA2 value as antagonist at MC4-R in a normal system (converted)", "method": "Assay for Neutral Antagonist. […] These studies were carried out in HEK-293 cells expressing the MC4-R receptor. Cells were incubated with the compounds in the presence of the agonist NDP-α-MSH and the extent of antagonism was measured by the decrease in the level of intracellular cAMP. Screening the compounds for antagonists was done at a single concentration of NDP-α-MSH (1.0 nM) over a compound concentration range of 0.5-5000 nM.\nExperimental details were similar to the analysis for agonistic activity described above. Briefly, cells were pre-incubated for 30 minutes with the test compounds at concentrations between 0.5 nM and 5000 nM. The cells were then stimulated with NDP-α-MSH at a concentration of 1 nM for 1 hour. For Schild analysis, the interactions were studied using at least 3 concentrations of the compounds, separated by a log unit, over a full range of the agonist (0.005-5000 nM). cAMP levels was measured in the cell lysates after appropriate dilution. Nonlinear regression analysis with Prism Graph-Pad software was used for Schild analysis and to obtain EC50 values. pA2 values were derived from the Schild plot of the data."}, "[4]": {"assay": "IP (and IN) food intake, mice", "type": "in vivo", "conditions": "mouse, IP, 10 mg/kg, 4 hours", "in_short": "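Male Sprague-Dawley rats dosed IV (0.5-3, up to 10 mg/kg) or IP (0.5-10, up to 50 mg/kg); male C57BL/6 mice dosed IP. Change in food intake and body weight over 24 h post-dose versus 1-week vehicle baseline, with 48 and 72 h reversal checks.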"}},
  "note": "pEC50: −log10 of the molar value. Non-standard residues stand in square brackets, D forms with d. Residues, ends and D or L forms follow the SMILES beside them. *: point of attachment. dPhe(4-Cl) = N[C@H](Cc1ccc(Cl)cc1)C(=O)O; Ahp = NCCCCCCC(=O)O; Bn = c1ccc(C*)cc1",
  "data": [
    {"smiles": "N=C(N)NCCC[C@H](NC(=O)[C@@H](Cc1ccc(Cl)cc1)NC(=O)[C@H](COCc1ccccc1)NC(=O)CCCCCCN)C(=O)N[C@@H](Cc1c[nH]c2ccccc12)C(=O)N[C@@H](CC(=O)O)C(N)=O", "note": "[Example 13, NH2—(CH2)6—C(═O)-Ser(Bzl)-D-Phe(4-Cl)-Arg-Trp-Asp-NH2] (H-[Ahp]S(Bn)[dPhe(4-Cl)]RWD-NH2)", "values": [
      {"measurement": "pEC50", "setting": "MC4-R [1]", "result": 7.47},
      {"measurement": "Efficacy/Intrinsic Activity", "setting": "MC4-R [1]", "result": 0.72},
      {"measurement": "Efficacy/Intrinsic Activity", "setting": "MC4-R [2]", "result": "None"},
      {"measurement": "Kb", "setting": "MC4-R [3]", "result": 50.1, "unit": "nM"}
    ]},
    {"smiles": "N=C(N)NCCC[C@H]1CN(CCc2ccc3ccccc3c2)CCN1C(=O)[C@H](N)Cc1ccc(Cl)cc1Cl", "note": "[Example 17, N-{3-[(S)-1-[(R)-2-Amino-3-(2,4-dichloro-phenyl)-propionyl]-4-(2-naphthalen-2-yl-ethyl)-piperazin-2-yl]-propyl}-guanidine]", "values": [
      {"measurement": "pEC50", "setting": "MC4-R [1]", "result": 6.07},
      {"measurement": "Efficacy/Intrinsic Activity", "setting": "MC4-R [1]", "result": 0.67},
      {"measurement": "maximal decrease in food intake", "setting": "[4]", "result": 86, "unit": "%"},
      {"measurement": "Efficacy/Intrinsic Activity", "setting": "MC4-R [2]", "result": "None"}
    ]}
  ]
}
